Where only a bound is given, the exact number is not on record here.

Targets include Histamine H2 receptor (Homo sapiens, UniProt P25021); Vasopressin V1a receptor (Homo sapiens, UniProt P37288); Histamine H1 receptor (Homo sapiens, UniProt P35367).
A further data set addresses T1, Thromboxane A2 receptor (Homo sapiens, UniProt P21731).
T1 sequence (P21731 whole entry): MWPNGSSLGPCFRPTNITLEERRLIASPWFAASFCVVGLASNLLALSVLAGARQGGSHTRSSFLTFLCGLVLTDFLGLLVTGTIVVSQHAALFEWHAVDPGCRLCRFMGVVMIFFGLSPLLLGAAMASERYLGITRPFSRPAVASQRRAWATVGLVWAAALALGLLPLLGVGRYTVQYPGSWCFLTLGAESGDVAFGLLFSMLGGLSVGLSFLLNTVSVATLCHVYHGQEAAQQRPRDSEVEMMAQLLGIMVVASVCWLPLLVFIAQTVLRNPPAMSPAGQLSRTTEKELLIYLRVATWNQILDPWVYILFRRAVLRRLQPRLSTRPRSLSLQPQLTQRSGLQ

For data set [1], the target named is 5-hydroxytryptamine receptor 2B (Homo sapiens, UniProt P41595). The data set is classed as functional.
For data set [2], the target named is T2, Muscarinic acetylcholine receptor M5 (Homo sapiens, UniProt P08912).
T2 sequence (P08912 whole entry): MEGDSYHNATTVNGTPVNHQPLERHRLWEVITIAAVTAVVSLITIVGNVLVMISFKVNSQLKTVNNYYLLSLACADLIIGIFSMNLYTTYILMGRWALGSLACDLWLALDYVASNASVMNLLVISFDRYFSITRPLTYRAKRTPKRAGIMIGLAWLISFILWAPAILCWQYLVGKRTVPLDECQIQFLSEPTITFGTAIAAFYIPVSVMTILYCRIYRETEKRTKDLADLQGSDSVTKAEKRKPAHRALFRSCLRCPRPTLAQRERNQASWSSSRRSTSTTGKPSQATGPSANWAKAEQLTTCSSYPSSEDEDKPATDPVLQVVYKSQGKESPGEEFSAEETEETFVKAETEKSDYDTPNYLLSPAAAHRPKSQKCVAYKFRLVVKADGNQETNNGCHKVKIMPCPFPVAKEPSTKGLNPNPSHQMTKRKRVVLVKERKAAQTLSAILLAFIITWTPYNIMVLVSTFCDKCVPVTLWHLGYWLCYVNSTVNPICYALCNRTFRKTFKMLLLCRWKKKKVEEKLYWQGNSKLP

The target in data set [3] is Small conductance calcium-activated potassium channel protein 1 (Homo sapiens, UniProt Q92952).
Data set [4] concerns the target T3, 5-hydroxytryptamine receptor 2C (Homo sapiens, UniProt P28335).
T3 sequence (P28335 whole entry): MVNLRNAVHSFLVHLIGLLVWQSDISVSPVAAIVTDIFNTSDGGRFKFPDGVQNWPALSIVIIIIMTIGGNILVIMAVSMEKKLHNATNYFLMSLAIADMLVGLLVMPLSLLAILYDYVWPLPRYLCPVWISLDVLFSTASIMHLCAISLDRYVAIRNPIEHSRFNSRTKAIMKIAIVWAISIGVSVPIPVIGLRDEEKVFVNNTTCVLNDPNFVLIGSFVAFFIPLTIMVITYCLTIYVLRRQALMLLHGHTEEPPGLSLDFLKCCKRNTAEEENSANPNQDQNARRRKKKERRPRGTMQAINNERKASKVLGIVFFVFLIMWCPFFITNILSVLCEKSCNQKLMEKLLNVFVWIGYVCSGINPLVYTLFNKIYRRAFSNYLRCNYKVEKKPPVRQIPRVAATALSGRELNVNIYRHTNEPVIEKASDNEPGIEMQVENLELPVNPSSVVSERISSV

Data set [5] is described as follows: in vivo. To be noted: Sprague-Dawley, rat, po, 10 mg/kg.
Data set [6] is described as follows: in vivo. To be noted: Sprague-Dawley, rat, ip, 10 mg/kg.
Data set [7] is described as follows: in vivo. To be noted: Sprague-Dawley, rat, po, 10 mg/kg. The source holds these as a separate data set.
The species named for data set [8] is Rattus norvegicus. In words: animal or person. It is filed as functional. To be noted: ip.
Data set [9] has as its target T4, C-C chemokine receptor type 1 (Homo sapiens, UniProt P32246).
T4 sequence (P32246 whole entry): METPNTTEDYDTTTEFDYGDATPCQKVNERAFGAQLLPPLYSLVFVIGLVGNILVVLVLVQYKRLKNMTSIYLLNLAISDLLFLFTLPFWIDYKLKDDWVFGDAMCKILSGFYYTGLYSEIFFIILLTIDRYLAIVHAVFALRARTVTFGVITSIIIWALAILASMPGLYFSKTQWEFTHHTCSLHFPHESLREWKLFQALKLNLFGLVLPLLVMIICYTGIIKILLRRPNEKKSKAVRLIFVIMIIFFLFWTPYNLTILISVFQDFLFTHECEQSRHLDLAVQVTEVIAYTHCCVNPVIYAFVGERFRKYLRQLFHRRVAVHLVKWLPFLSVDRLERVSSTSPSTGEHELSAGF

The species named for data set [10] is Mus musculus. It is filed as functional, organism-based, BALB/c.
For data set [11], the species on record is Rattus norvegicus. To be noted: in vivo, ip, 30 umol/kg.
The species named for data set [12] is Mus musculus. The conditions noted are these: CD-1(ICR), in vivo, ip, 0.3 umol/kg.
The target in data set [13] is T5, Histamine H4 receptor (Mus musculus) (UniProt Q91ZY2).
T5 sequence (whole entry): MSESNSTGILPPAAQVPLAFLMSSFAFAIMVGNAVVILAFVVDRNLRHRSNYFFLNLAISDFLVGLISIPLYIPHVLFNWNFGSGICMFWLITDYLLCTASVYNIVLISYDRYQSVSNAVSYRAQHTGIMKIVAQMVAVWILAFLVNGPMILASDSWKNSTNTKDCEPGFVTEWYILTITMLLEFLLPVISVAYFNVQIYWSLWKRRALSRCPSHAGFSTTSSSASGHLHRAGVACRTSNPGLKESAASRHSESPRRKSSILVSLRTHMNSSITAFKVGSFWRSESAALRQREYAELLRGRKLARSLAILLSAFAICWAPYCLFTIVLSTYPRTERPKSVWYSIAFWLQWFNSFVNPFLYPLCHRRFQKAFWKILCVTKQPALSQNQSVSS

For data set [14], the target named is T6, Histamine H4 receptor (Homo sapiens, UniProt Q9H3N8). In words: biochemical. The data set is classed as cell-based, HEK293.
For data set [15], the target named is Histamine H3 receptor (Homo sapiens, UniProt Q9Y5N1).
For data set [16], the target named is Histamine H3 receptor (Rattus norvegicus, UniProt Q9QYN8).
The target in data set [17] is T3, 5-hydroxytryptamine receptor 2C. The source holds these as a separate data set.
Data set [18] has as its target T6, Histamine H4 receptor. To be noted: HEK293.
A short description of another data set: in vitro. The conditions noted are these: Sprague-Dawley, rat, plasma.
For the next data set, the target named is T7, Substance-K receptor (Homo sapiens, UniProt P21452).
T7 sequence (P21452 whole entry): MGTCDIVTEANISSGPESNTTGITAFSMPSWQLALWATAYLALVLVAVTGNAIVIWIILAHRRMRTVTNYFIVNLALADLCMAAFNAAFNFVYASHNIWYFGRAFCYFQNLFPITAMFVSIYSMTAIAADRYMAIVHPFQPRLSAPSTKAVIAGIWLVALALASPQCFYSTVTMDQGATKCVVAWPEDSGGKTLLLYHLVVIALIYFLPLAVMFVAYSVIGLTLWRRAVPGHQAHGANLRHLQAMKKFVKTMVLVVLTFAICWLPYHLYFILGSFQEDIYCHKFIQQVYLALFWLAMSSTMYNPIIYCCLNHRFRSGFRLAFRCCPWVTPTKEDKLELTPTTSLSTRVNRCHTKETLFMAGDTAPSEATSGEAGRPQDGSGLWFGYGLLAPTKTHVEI

The nature of data set [19]: in vivo. The conditions noted are these: Sprague-Dawley, rat, po, 10 mg/kg. The source holds these as a separate data set.
Data set [20] concerns the target Histamine H4 receptor (Rattus norvegicus) (UniProt Q91ZY1).
The species named for data set [21] is Rattus norvegicus. The conditions noted are these: in vivo, ip, 100 umol/kg.
Data set [22] can be described thus: in vivo. The conditions noted are these: Sprague-Dawley, rat, ip, 10 mg/kg. The source holds these as a separate data set.
Data set [23] is filed under the species Mus musculus. Put plainly: animal or person. The data set is classed as functional. The conditions noted are these: CD-1(ICR), ip.
Data set [24] can be described thus: in vivo. To be noted: Sprague-Dawley, rat, ip, 10 mg/kg. This is another data set of the same source.
The target of data set [25] is Histamine H4 receptor (Rattus norvegicus, UniProt Q91ZY1). In words: biochemical. It is filed as cell-based, HEK293.
The nature of data set [26]: in vivo. To be noted: Sprague-Dawley, rat, po, 10 mg/kg. This is another data set of the same source.
Data set [27] is described as follows: in vivo. To be noted: Sprague-Dawley, rat, ip, 10 mg/kg. The source holds these as a separate data set.

Chain of Histamine H2 receptor (P25021 whole entry): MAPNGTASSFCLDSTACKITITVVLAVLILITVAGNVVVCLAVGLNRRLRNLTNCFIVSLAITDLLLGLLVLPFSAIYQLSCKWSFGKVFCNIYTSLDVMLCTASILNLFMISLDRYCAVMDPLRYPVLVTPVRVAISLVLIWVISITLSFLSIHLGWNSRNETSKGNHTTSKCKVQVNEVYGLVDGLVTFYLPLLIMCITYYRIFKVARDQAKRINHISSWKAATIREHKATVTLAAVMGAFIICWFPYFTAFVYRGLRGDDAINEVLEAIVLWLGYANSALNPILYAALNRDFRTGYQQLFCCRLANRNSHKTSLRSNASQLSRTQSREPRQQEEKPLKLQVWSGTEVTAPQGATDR
Chain of 5-hydroxytryptamine receptor 2B (P41595 whole entry): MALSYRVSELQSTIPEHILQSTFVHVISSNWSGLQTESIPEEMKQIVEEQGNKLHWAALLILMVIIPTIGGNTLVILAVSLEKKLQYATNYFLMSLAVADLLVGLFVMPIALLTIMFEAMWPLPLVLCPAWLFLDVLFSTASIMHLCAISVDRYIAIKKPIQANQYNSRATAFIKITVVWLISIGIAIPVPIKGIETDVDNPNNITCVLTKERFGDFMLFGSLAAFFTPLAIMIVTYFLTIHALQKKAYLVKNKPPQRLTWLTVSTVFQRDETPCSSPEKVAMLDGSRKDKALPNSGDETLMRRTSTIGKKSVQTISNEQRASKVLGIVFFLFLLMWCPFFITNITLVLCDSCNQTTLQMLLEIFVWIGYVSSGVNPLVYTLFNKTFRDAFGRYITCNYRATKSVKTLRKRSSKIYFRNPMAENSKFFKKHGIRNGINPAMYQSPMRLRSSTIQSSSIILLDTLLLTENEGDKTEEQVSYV
Chain of Vasopressin V1a receptor (P37288 whole entry): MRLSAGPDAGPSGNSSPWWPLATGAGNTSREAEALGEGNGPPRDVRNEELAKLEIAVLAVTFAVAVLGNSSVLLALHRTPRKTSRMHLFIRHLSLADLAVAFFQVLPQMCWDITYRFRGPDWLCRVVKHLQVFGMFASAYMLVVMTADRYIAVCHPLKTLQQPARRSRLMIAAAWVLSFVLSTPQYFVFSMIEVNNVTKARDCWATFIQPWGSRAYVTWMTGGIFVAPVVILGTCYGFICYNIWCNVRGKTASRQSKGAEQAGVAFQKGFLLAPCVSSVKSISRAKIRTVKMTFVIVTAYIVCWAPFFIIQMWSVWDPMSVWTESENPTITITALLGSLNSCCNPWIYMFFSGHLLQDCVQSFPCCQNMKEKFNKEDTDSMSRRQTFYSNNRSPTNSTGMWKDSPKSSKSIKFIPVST
Chain of Small conductance calcium-activated potassium channel protein 1 (Q92952 whole entry): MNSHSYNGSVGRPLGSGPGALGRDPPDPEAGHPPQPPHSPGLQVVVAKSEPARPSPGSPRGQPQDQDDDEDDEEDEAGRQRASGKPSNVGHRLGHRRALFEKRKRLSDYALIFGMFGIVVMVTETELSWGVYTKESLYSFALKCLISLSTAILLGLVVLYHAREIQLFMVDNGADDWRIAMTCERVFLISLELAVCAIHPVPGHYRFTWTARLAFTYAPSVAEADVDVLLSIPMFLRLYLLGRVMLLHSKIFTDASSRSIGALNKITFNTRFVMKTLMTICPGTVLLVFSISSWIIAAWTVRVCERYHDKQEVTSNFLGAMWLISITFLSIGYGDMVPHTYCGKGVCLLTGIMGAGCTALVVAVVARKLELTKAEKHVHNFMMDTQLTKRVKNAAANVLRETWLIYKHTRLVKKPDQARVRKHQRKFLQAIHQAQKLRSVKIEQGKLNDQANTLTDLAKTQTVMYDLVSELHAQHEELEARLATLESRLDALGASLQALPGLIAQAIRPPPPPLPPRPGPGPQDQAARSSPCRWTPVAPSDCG
T6 sequence (Q9H3N8 whole entry): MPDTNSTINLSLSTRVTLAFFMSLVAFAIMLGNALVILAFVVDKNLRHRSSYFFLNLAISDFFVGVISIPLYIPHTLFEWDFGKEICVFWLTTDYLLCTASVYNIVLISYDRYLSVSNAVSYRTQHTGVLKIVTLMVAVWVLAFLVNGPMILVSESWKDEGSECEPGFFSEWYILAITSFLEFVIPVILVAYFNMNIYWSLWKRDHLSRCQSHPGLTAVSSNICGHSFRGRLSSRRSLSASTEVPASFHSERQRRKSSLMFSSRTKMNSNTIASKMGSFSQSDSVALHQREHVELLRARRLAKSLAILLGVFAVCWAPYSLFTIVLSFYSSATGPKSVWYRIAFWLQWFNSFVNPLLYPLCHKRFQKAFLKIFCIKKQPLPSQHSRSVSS
Chain of Histamine H4 receptor (Rattus norvegicus, UniProt Q91ZY1) (Q91ZY1 whole entry): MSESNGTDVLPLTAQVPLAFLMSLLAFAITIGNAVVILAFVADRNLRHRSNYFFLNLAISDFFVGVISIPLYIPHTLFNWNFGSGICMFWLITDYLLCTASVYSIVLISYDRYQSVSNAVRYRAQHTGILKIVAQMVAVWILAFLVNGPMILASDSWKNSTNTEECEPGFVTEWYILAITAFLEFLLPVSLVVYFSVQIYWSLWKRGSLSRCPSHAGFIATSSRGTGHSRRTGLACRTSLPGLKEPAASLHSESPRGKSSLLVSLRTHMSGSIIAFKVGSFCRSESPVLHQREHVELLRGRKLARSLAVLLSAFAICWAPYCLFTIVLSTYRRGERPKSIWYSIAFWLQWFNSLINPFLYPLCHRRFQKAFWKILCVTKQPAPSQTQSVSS
Chain of Histamine H4 receptor (Rattus norvegicus) (Q91ZY1 whole entry): as above
Chain of Histamine H3 receptor (Homo sapiens, UniProt Q9Y5N1) (Q9Y5N1 whole entry): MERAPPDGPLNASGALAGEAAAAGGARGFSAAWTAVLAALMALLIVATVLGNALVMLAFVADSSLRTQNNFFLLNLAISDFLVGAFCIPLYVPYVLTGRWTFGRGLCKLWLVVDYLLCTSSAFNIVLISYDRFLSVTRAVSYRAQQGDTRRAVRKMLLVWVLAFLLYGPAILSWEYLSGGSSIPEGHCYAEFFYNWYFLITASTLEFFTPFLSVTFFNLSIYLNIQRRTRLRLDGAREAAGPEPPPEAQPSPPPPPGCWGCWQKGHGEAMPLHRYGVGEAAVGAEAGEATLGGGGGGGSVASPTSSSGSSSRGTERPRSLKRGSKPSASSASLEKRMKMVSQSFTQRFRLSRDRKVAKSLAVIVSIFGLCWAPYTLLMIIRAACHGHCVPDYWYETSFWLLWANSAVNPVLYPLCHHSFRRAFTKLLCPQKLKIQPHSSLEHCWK
Chain of Histamine H1 receptor (P35367 whole entry): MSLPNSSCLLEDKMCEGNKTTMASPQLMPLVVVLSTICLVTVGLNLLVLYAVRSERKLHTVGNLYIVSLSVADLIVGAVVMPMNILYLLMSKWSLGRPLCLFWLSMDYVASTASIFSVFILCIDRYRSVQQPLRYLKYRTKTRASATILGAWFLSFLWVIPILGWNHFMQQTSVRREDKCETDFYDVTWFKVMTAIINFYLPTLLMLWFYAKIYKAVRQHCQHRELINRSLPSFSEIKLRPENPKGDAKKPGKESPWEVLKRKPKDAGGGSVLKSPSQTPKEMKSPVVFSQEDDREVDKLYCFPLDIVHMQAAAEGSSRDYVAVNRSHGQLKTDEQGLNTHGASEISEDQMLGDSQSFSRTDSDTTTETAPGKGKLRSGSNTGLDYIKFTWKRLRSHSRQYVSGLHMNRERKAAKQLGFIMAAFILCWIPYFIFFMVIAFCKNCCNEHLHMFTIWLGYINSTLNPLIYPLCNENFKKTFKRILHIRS
Chain of Histamine H3 receptor (Rattus norvegicus, UniProt Q9QYN8) (Q9QYN8 whole entry): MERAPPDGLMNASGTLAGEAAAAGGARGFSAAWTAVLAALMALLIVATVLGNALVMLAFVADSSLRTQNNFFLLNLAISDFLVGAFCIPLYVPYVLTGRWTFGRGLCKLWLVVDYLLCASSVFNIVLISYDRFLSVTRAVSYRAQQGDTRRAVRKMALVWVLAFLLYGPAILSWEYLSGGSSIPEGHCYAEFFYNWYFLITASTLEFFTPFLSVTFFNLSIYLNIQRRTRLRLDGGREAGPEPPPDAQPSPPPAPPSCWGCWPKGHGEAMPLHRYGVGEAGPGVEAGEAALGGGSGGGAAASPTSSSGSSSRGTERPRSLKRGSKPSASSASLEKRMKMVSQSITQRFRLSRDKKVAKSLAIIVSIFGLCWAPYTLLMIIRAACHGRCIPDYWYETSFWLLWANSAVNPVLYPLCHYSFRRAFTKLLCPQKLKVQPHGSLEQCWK

By Ki is commonly meant a measure of affinity in units of concentration, obtained from inhibition or displacement. For `CCCCC[C@H](O)/C=C/[C@H]1C2COC(C2)[C@@H]1C/C=C\CCCC(=O)O` (some centres not stated), at Thromboxane A2 receptor, the IC50 came to 37 nM and the affinity, expressed as Ki, was 16 nM.
Take `COc1cc(CC(C)N)c(OC)cc1I` (racemic): in data set [1], the IC50 is 3.5 nM and the affinity, expressed as Ki, was 3.5 nM.
For the compound `C[N+]1(C)CCC(OC(=O)C(c2ccccc2)c2ccccc2)CC1` [4-DAMP], in [2], the IC50 came out at 0.83 nM and the Ki turned out to be 0.42 nM.
For `CC(C)C[C@@H]1NC(=O)[C@H](C)NC(=O)[C@H]([C@@H](C)O)NC(=O)[C@H](CCC(=O)O)NC(=O)[C@@H]2CCCN2C(=O)[C@H](C)NC(=O)[C@H](CCCCN)NC(=O)[C@@H]2CSSC[C@@H](C(=O)N[C@@H](CCC(N)=O)C(=O)N[C@@H](CCC(N)=O)C(=O)N[C@@H](Cc3cnc[nH]3)C(N)=O)NC(=O)[C@H](CCCNC(=N)N)NC(=O)[C@H](CCCNC(=N)N)NC(=O)[C@H](C)NC(=O)[C@H](CSSC[C@H](N)C(=O)N[C@@H](CC(N)=O)C(=O)N2)NC1=O` [APAMIN], in [3], the IC50 came to 0.014 nM and the inhibition constant (Ki) came to 0.0068 nM.
Turning to `CN1CCN(C(=O)c2cc3cc(Cl)ccc3[nH]2)CC1` [JNJ-7777120], at Histamine H2 receptor, the Ki was > 8510 nM.
As to `COc1cc(OC)c(C(=O)CCCCN2CCC3(CC2)NC(=O)NC3=O)cc1NS(=O)(=O)c1ccc(C(F)(F)F)cc1` [RS-102,221], in data set [4], the IC50 was 8.3 nM and affinity was put at a Ki of 3.9 nM.
What is called Cmax is the peak of the concentration-time curve. A word on the bioavailability: it is the share of a dose that reaches the circulation, judged against a reference dose that is usually intravenous. The low end stands for poor availability, the high end for good availability. A word on the ED50: it is the dose that gives a 50% effect, or the effect in half of the subjects. Lower therefore signals greater potency. A word on the pKb: it is the Kb on a negative log10 scale, so that one unit is a factor of ten. High values mean a low Kb, low ones a high Kb. For orientation: fraction unbound means the share of the substance not bound to proteins or other matrix. Broadly, the half-life is the time needed for the level to fall by half in the phase considered. As a reminder, the Tmax is the time at which the peak concentration occurs. Consider `Nc1nc2c(c(N3CCNCC3)n1)CCC1=C2[C@@H]2CCCC[C@@H]2O1` (relative stereo), for which the Cmax turned out to be 300 nM in the data set “in vivo [5]” and 1730 nM in “in vivo [22]”. Also, the bioavailability in “in vivo [6]” stood at 72%; in “in vivo [7]”, 26%. The ED50 in the data set listed under Rattus norvegicus [8] was 42 µmol/kg; in the data set filed under Mus musculus [23], 0.36 µmol/kg. The IC50 in data set [9] stood at 0.087 nM; at Vasopressin V1a receptor, 3.9 nM; in the data set listed under Mus musculus [10] it was 125 µmol/kg; in data set [17] it was 11700 nM; against Substance-K receptor, 5.7 nM. Further, the Ki in [9] is 0.043 nM; on Vasopressin V1a receptor, 2.4 nM; on Histamine H4 receptor [14], 5.75 nM; at Histamine H3 receptor [15] it was 933 nM; at Histamine H3 receptor [16] it was 13.5 nM; on Substance-K receptor, 3.1 nM. Further, the Ki on Histamine H2 receptor was > 9120 nM; on Histamine H4 receptor [25], 3.39 nM; on Histamine H1 receptor, 3550 nM. For the same compound, the Cp in the data set filed under Rattus norvegicus [11] is 610 ng/mL; in the data set filed under Mus musculus [12], 15 ng/mL; in the data set filed under Rattus norvegicus [21], 2900 ng/mL. For the same compound, the pKb was found to be 8.2 in data set [13], 8.33 on Histamine H4 receptor [18] and 8.3 in [20]. The compound also had a fraction unbound in “in vitro” of 0.41. For the same compound, the half-life was 3.7 h in “in vivo [19]” and 4.7 h in the data set “in vivo [27]”. Besides, the Tmax in “in vivo [24]” was 0.25 h; in the data set “in vivo [26]” it was 1.5 h.
